Entries after “also recorded” stand apart in the source; their conditions may differ.
How the values were obtained:
Type in all cases: cell-based
human M4 (hM4) [1] = biological target: T1, human M4 (hM4) (Homo sapiens, UniProt P08173); assay: M4 multiparametric FLIPR calcium assay, PAM mode; conditions: compound tested at 3 µM, versus EC20 acetylcholine
T1 sequence (P08173 1-479): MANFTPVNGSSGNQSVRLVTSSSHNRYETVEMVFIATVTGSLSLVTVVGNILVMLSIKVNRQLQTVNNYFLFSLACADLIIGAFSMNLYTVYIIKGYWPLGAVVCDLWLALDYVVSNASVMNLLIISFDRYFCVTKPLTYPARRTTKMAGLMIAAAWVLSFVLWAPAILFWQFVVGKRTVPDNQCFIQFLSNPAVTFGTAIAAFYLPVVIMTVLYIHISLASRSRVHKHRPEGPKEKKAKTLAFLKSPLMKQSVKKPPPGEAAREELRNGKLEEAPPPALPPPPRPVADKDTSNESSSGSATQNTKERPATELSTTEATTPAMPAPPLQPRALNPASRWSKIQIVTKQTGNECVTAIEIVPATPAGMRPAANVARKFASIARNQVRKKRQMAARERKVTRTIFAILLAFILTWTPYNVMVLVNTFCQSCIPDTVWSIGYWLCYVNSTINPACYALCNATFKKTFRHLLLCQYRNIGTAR

human M4 (hM4) [2] = biological target: T1, human M4 (hM4); assay: M4 multiparametric FLIPR calcium assay, agonist mode; conditions: compound tested at 3 µM, versus DMSO
human M4 (hM4) [3] = biological target: T1, human M4 (hM4); assay: M4 multiparametric FLIPR calcium assay, antagonist mode; conditions: compound tested at 3 µM, versus EC80 acetylcholine

| Structure (SMILES) | response in PAM mode (kinetic trace) (human M4 (hM4) [1]) | response in agonist mode (kinetic trace) (human M4 (hM4) [2]) | response in antagonist mode (kinetic trace) (human M4 (hM4) [3]) |
| --- | --- | --- | --- |
| C/C=C(/C)C(=O)O[C@H]1C(C)=C2[C@H]([C@@H]1OC(=O)CCCCCCC)[C@@](C)(OC(C)=O)C[C@H](OC(=O)CCC)[C@@]1(O)[C@H]2OC(=O)[C@@]1(C)O [thapsigargin] | hit in all modes | hit in all modes | hit in all modes |
| COc1ccc(CNC(=O)c2sc3nc(C)cc(C)c3c2N)cc1 [ML108] | classified as PAMs | active; also recorded: yielded responses in the agonist mode |  |
